The record followed here is publication PMC3326647, “Single Enantiomer of YK-4-279 Demonstrates Specificity in Targeting the Oncogene EWS-FLI1” (Oncotarget, 2012).

Type in all cases: cell-based
The target in assay [1] is T1, EWS-FLI1/RHA interaction in TC32 cells (Homo sapiens, UniProt Q01543+Q01844).
T1 construct: FLI1 C-terminal portion (fusion partner, Q01543); endogenous in cells; host or cells: TC32
T1 sequence (Q01844+Q01543 with tags, fused parts or gaps): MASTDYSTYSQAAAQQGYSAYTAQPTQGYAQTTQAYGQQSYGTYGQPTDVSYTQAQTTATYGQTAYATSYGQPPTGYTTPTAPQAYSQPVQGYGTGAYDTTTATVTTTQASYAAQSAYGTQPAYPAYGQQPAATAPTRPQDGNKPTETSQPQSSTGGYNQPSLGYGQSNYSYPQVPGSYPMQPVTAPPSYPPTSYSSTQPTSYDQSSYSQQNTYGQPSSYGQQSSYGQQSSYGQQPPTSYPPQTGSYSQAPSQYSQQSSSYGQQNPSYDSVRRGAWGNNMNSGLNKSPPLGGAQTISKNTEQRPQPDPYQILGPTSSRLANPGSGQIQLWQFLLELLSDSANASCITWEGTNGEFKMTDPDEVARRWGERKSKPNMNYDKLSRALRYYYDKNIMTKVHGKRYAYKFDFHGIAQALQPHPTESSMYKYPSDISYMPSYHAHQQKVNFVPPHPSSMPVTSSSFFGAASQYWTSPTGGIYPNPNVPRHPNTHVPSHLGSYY
As to the kind of experiment: Co-immunoprecipitation of EWS-FLI1 and RHA from treated TC32 cells, western blot densitometry. Conditions: 15 hours; for RHA coimmunoprecipitated with EWS-FLI1: 10μM; for IC50: 0.3 to 10μM, read-out: IC50, densitometry of RHA relative to FLI1. As for the experimental part: TC32 were grown to ~70% confluency and cells were treated for 15 hours with small molecule. Nuclear lysate was collected using the Active Motif Magnetic Co-IP Kit (Active Motif). Protein concentration was determined using bicinchoninic acid protein assay for each lysate (Pierce) and lysate was bound to 1μg of antibody overnight at 4C on a rotating axis with addition of same concentration of small molecule as used for 15 hour treatment. Magnetic beads (Active Motif) were added to the lysates and tumbled for 2 hours at 4C. Immunoprecipitated proteins were resolved using 10% PAGE and transferred to a polyvinylidene difluoride membrane (Millipore). Membranes were blocked in 5% nonfat dry milk in TTBS (20mM Tris-HCl, 150mM NaCl, 0.5% Tween 20) for 2 hours. FLI1 (Santa Cruz Biotechnologies) and RHA (Abcam) antibodies were used at 1:1000 dilutions in 5% nonfat dry milk for 2 hours. Horseradish peroxidase-linked anti-rabbit antibody (GE Healthcare) was added for 1 hour. Detection was carried out using Millipore Immobilon Western Chemiluminescent HRP Substrate per the manufacturer's instructions (Millipore Corp.). Chemiluminescence was detected using a Fujifilm LAS-3000 imaging system. Densitometry values were obtained using ImageJ software.

Assay [2] concerns the target T2, EWS-FLI1 transcriptional activity (Homo sapiens, UniProt Q01543+Q01844).
T2 sequence (Q01844 1-264): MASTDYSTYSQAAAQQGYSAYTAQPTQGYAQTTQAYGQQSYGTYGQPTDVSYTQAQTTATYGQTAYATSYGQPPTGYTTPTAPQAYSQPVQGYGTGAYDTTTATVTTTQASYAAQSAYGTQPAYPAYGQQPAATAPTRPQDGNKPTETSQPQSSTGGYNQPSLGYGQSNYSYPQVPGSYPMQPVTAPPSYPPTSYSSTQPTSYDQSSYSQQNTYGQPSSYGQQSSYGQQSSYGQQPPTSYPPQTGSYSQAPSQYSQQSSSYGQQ
T2 sequence (Q01543 220-452): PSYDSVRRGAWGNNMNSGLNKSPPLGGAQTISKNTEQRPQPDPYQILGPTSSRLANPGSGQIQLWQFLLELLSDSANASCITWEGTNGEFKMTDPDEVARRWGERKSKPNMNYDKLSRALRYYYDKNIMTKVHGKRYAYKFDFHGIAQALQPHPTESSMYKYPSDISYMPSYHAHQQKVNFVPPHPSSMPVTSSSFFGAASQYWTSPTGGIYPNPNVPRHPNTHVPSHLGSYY
As to the kind of experiment: NR0B1-luciferase reporter assay in COS7 cells transfected with EWS-FLI1. Conditions: for luciferase activity compared to vehicle: COS7 cells, dose of 0.3μM. As for the experimental part:
Cells were transiently transfected with the NR0B1 luciferase reporter and full length EWS-FLI1 into COS7 cells with Fugene-6 (Roche) according to the manufacturer's protocol. Two hours after transformation, cells were treated with 0.3, 1, and 3μM of YK-4-279, (S)-YK-4-279, and (R)-YK-4-279. Luciferase activity was measured 16 hours after treatment. Protein concentration was normalized by absorbance at 280nm. All luciferase assays were performed using a luciferase assay kit according to the manufacturer's protocol (Promega).

Assay [3] concerns TC71 cells. Kind of assay: Cellular proliferation (WST) assay, TC71. Particulars: for IC50: TC-71, 72 h, TC71, ESFT (Type 1), read-out: IC50 at 3 days (+/− SEM). How it is done:
(§1) TC32, TC71, RDES, MMH-ES-1, STA-ET 7.2, A4573, and PC3 cells were grown in RPMI with 10% FBS and 1% HEPES. SKES cells were grown in McCoy's 5A medium with 15% FBS. MCF7, MDA-MB-231, PANC1, and ASPC1 cells were grown in colorless DMEM with 10% FBS. Cells were grown at a plating density of 5,000 – 15,000 cells/well, depending on cell line, in a 96-well plate. Small molecule or vehicle alone (DMSO) were added to cells in appropriate growth media the day after plating. After three days, viable cells were quantified using WST (Roche) according to the manufacturer's protocol. IC50 values were calculated by sigmoidal dose-response curve fit using Prism Graphpad 4.0.

Assay [4] deals with RDES cells. As to the kind of experiment: Cellular proliferation (WST) assay, RDES. Conditions: for IC50: RD-ES, 72 h, RDES, ESFT (Type 2), read-out: IC50 at 3 days (+/− SEM). How it is done: as §1
Assay [5] deals with SKES cells. As to the kind of experiment: Cellular proliferation (WST) assay, SKES. Conditions: 72 h, ESFT (Type 2), read-out: IC50 at 3 days (+/− SEM). As for the experimental part:
as §1

Assay [6] relates to A4573 cells. As to the kind of experiment: Cellular proliferation (WST) assay, A4573. Conditions: 72 h; A4573, ESFT (Type 3); read-out: IC50 at 3 days (+/− SEM). How it is done:
as §1

Assay [7] concerns PC3 cells. Kind of assay: Cellular proliferation (WST) assay, PC3. Particulars: Homo sapiens, PC-3, 72 h, read-out: IC50 at 3 days (+/− SEM). How it is done: as §1
Assay [8] concerns MDA-MB-231 cells. As to the kind of experiment: Cellular proliferation (WST) assay, MDA-MB-231. Particulars: Homo sapiens, 72 h; MDA-MB-231, breast; read-out: IC50 at 3 days (+/− SEM). How it is done: as §1
The test system of assay [9] is ESFT cell lines. As to the kind of experiment: Cellular proliferation (WST) assay, panel of seven ESFT cell lines. Particulars: 72 h. How it is done: as §1
Assay [10] relates to non-ESFT cell lines (PC3, MCF7, MDA-MB-231, PANC1, ASPC1). As to the kind of experiment: Cellular proliferation (WST) assay, panel of five non-ESFT cell lines. Conditions: 72 h. How it is done:
as §1

Setting [11] is: mean over seven ESFT cell lines, read-out: Mean IC50 at 3 days (+/− SEM).
[12] abbreviates: seven EWS-FLI1 expressing cell lines, three days, read-out: range of mean IC50 values across ESFT cell lines.
Where [13] appears, read: read-out: Mean IC50 at 3 days (+/− SEM), mean over five non-ESFT cell lines.

Where two headings read alike, the source gives them in different places.

Consider `COc1ccc(C(=O)C[C@]2(O)C(=O)Nc3c(Cl)ccc(Cl)c32)cc1` [(R)-YK-4-279], for which the “RHA coimmunoprecipitated with EWS-FLI1” value in assay [1] is on record as “coimmunoprecipitation of EWS-FLI1 with RHA”. For the same compound, in assay [2] (COS7 cells, 0.3, 1 and 3μM), the “luciferase activity compared to control” value is on record as “did not show significant reduction from control”. Moreover, the IC50 in assay [3] was 20.9 µM; in assay [4], 12.7 µM; in assay [5] it was 21 µM; in [6], 11.7 µM; in [7], over 30 µM; in [8], 22 µM. For the same compound, the IC50 in assay [9] (setting [11]) is 18.5 µM; in assay [9] (setting [12]), 11.7 to 26 µM; in assay [10] (setting [13]) it was over 30 µM.

Turning to `COc1ccc(C(=O)C[C@@]2(O)C(=O)Nc3c(Cl)ccc(Cl)c32)cc1` [(S)-YK-4-279], the “RHA coimmunoprecipitated with EWS-FLI1” value in [1] was “significant reduction in complexed RHA”. For the same compound, the IC50 in [1] was determined as 1.8 µM; in assay [3], 0.16 µM; in assay [4], 0.87 µM; in assay [5] it was 0.18 µM; in [6], 0.23 µM; in [7], 3.79 µM. The IC50 in [8] was 1.17 µM; in assay [9] (setting [11]), 0.34 µM; in assay [9] (setting [12]) it was 0.16 to 0.87 µM; in [10] (setting [13]), 6.86 µM. Besides, the “luciferase activity compared to vehicle” value in [2] is on record as “significantly reduced”. For the same compound, the “fold-difference in IC50 between the racemic and the active enantiomer” value in [3] (TC71 cells) was “more than a log-fold difference”; in assay [4] (RDES cells), 1.18 fold.

In the case of `COc1ccc(C(=O)CC2(O)C(=O)Nc3c(Cl)ccc(Cl)c32)cc1` (stereo not shown) [YK-4-279], the “RHA coimmunoprecipitated with EWS-FLI1” value in assay [1] was “significant reduction in complexed RHA”. The IC50 worked out at 4.9 µM in [1]; 1.83 µM in assay [3]; 1.03 µM in assay [4]; 0.33 µM in assay [5]; 1.46 µM in assay [6]; 4.95 µM in [7]. Besides, the IC50 was 0.82 µM in [8], 1.02 µM in [9] (setting [11]), 0.33 to 1.83 µM in [9] (setting [12]) and 8.88 µM in assay [10] (read-out: Mean IC50 at 3 days (+/− SEM)). In addition, the “luciferase activity compared to vehicle” value in assay [2] is recorded as “not significant”.
